According to patent US20150087619A1, “METHOD OF MITIGATING VIRUS ASSOCIATED END-ORGAN DAMAGE” (CHIMERIX, INC., priority 2012, published 2015):

Legend:
AdV = experiment: In vitro antiviral activity in cell culture; assay type: cell-based
BKV [1] = experiment: In vitro antiviral activity in cell culture; assay type: cell-based
CMV = experiment: In vitro antiviral activity in cell culture; assay type: cell-based; conditions: Human betaherpesvirus 5
HHV-6(B) = experiment: In vitro antiviral activity in cell culture; assay type: cell-based
EBV = experiment: In vitro antiviral activity in cell culture; assay type: cell-based; conditions: human gammaherpesvirus 4
HSV-1 = experiment: In vitro antiviral activity in cell culture; assay type: cell-based; conditions: HSV-1, cell culture; for EC50: Human alphaherpesvirus 1
VZV = experiment: In vitro antiviral activity in cell culture; conditions: for EC50: Human alphaherpesvirus 3, read-out: EC50s
BKV [2] = experiment: Study HDP-CDV-201: hematuria and BKV bladder events; assay type: in vivo, human
Experimental: A multicenter, randomized, double-blind, placebo-controlled, dose-escalation study of safety, tolerability, and ability of HDP-CDV to prevent or control […], and EBV infection and associated disorders was conducted. During enrollment of patients in the study, urine samples of candidate patients were routinely screened for BKV. Plasma was collected from patients who tested positive for BKV viruria in urine, and AdV, EBV and BKV level in the plasma was evaluated.

BKV [3] = experiment: Study HDP-CDV-201: serum creatinine as marker of renal function
[4] = BK positive during treatment (1/93)
[5] = BK positive during treatment, N=93

Compound Nc1nc2c(ncn2COCCO)c(=O)[nH]1 [Acyclovir] has an EC50 (AdV) of over 100000 nM and an EC50 (BKV [1]) of over 200000 nM.

For Nc1ccn(C[C@@H](CO)OCP(=O)(O)O)c(=O)n1 [Cidofovir], the EC50 (CMV) was 400 nM, the EC50 (HHV-6(B)) was 5400 nM and the EC50 (AdV) was 1300 nM. It also gave an EC50 (EBV) of over 108000 nM, an EC50 (HSV-1) of 5500 nM and an EC50 (BKV [1]) of 115000 nM. For the same compound, the EC50 (VZV) was 500 nM.

Compound Nc1nc(O)c2ncn(COC(CO)CO)c2n1 [Ganciclovir] has an EC50 (CMV) of 3800 nM, an EC50 (HHV-6(B)) of 5900 nM and an EC50 (AdV) of 4500 to 33000 nM. It also gave an EC50 (EBV) of 900 nM, an EC50 (HSV-1) of 7 nM and an EC50 (BKV [1]) of over 200000 nM. For the same compound, the EC50 (VZV) was 1300 nM.

CCCCCCCCCCCCCCCCOCCCOP(=O)(O)CO[C@H](CO)Cn1ccc(N)nc1=O [HDP-CDV] was tested, and the “1 + HEME CONFIRMED; NEW ONSET” value (BKV [2]; BK negative throughout (4/78)) was 5.1%, the “1 + HEME CONFIRMED; NEW ONSET” value (BKV [2]; BK positive during treatment (4/93)) was 4.3% and the “>120 LAST; 1 + HEME NEW ONSET; CONFIRMED; >25% INC CREATININE” value (BKV [3]; BK negative throughout) was 1.3%. For the same compound, the “CR >120 LAST VALUE; 1 + HEME CONFIRMED NEW ONSET” value (BKV [3]; BK negative throughout (1/78)) was 1.3%, the “>120; NEW; >25% INCREASE” value (BKV [3]; BK negative throughout (6/78)) was 7.7% and the “CREATININE >120 LAST VALUE AND NEW FROM BASELINE” value (BKV [3]; BK negative throughout (6/78)) was 7.7%. The “creatinine elevations >120 microM and =>25% increase over baseline” value (BKV [3]; BK negative throughout (7/78), placebo 7.4%) was 9.0%, the “CR >120 LAST VALUE” (BKV [3]; BK negative throughout (10/78)) was 12.8% and the “creatinine elevations (>120 last and >25% increase from baseline) OR 1+ heme, confirmed, new onset” value (BKV [3]; BK negative throughout (11/78), placebo 11.1%) was 14.1%. The “# (of CR >120 at baseline) THAT INCREASED >25%” value (BKV [3]; BK negative throughout, N=78) was 1, the “# (of CR >120 at baseline) THAT INCREASED DURING TREATMENT” value (BKV [3]; BK negative throughout, N=78) was 1 and the “>120 LAST; 1 + HEME NEW ONSET; CONFIRMED; >25% INC CREATININE” value (BKV [3]; [4]) was 1.1%. The “CR >120 LAST VALUE; 1 + HEME CONFIRMED NEW ONSET” value (BKV [3]; [4]) was 1.1%, the “>120; NEW; >25% INCREASE” value (BKV [3]; BK positive during treatment (7/93)) was 7.5% and the “end of treatment creatinine elevations >120 microM and =>25% over baseline” value (BKV [3]; BK positive during treatment (7/93), placebo 18.75%) was 7.5%. For the same compound, the “CREATININE >120 LAST VALUE AND NEW FROM BASELINE” value (BKV [3]; BK positive during treatment (10/93)) was 10.8%, the “creatinine elevations (>120 last and >25% increase from baseline) OR 1+ heme, confirmed, new onset” value (BKV [3]; BK positive during treatment (11/93), placebo 37.5%) was 11.8% and the “CR >120 LAST VALUE” (BKV [3]; BK positive during treatment (14/93)) was 15.1%. The “# (of CR >120 at baseline) THAT INCREASED >25%” value (BKV [3]; [5]) was 0 and the “# (of CR >120 at baseline) THAT INCREASED DURING TREATMENT” value (BKV [3]; [5]) was 0.

For CC(C)Nc1nc2cc(Cl)c(Cl)cc2n1[C@H]1O[C@@H](CO)[C@H](O)[C@@H]1O [Maribavir], the EC50 (CMV) was 310 nM, the EC50 (EBV) was 630 nM and the EC50s (HSV-1) was “No Activity”. For the same compound, the EC50s (VZV; VZV, cell culture) was “No Activity”.
